Results: patent US10029984B2, “Mono- or di-substituted indole derivatives as dengue viral replication inhibitors” (Janssen Pharmaceuticals, Inc., priority 2015, dated 2018)
pEC50: −log10 of the molar value.

Legend:
DENV-1 strain TC974#666 = assay: Tetravalent RT-qPCR assay Protocol A, serotype 1; format: cell-based; conditions: Dengue virus, DENV1, 72 h; RT-qPCR serotype 1 TC974#666, Vero cells, day 3
Protocol: (§1) The antiviral activity of the compounds of the invention was tested against DENV-1 strain TC974#666 (NCPV; Table 6), DENV-2 strain 16681 (Table 7), DENV-3 strain H87 (NCPV; Table 8) and DENV-4 strains H241 (NCPV; Table 9) in a RT-qPCR assay. Therefore, Vero cells were infected with either DENV-1, or -2, or -3, or -4 in the presence or absence of test compounds. At day 3 post-infection, the cells were lysed and cell lysates were used to prepare cDNA of both a viral target (the 3′UTR of DENV; table 2) and a cellular reference gene (β-actin, table 2). Subsequently, a duplex real time PCR was performed on a Lightcycler480 instrument. The generated Cp value is inversely proportional to the amount of RNA expression of these targets. Inhibition of DENV replication by a test compound result in a shift of Cp's for the 3′UTR gene. On the other hand, if a test compound is toxic to the cells, a similar effect on β-actin expression will be observed. The comparative ΔΔCp method is used to calculate EC50, which is based on the relative gene expression of the target gene (3′UTR) normalized with the cellular housekeeping gene (β-actin).
(§2) The culture medium consisted of minimal essential medium supplemented with 2% of heat-inactivated fetal calf serum, 0.04% gentamycin (50 mg/mL) and 2 mM of L-glutamine. Vero cells, obtained from ECACC, were suspended in culture medium and 75 μL/well was added in 96-well plates (10000 cells/well), which already contain the antiviral compounds. Typically, these plates contain a 4-fold serial dilution of 9 dilution steps of the test compound at 200 times the final concentration in 100% DMSO (500 nL; final concentration range: 25 μM-0.00038 μM). In addition, each plate contains wells which are assigned as virus controls (containing cells and virus in the absence of compound) and cell controls (containing cells in the absence of virus and compound). Once the cells were added in the plates, the plates were incubated in a fully humidified incubator (37° C., 5% CO2) until the next day. Then, DENV-1 strain TC974#666 at an MOI of 0.6, DENV-2 strain 16681 at an MOI of 0.01, DENV-3 strain H87 at an MOI of 1.0 and DENV-4 strains H241 at an MOI of 0.2 and SG/06K2270DK1/2005 at an MOI of 0.16, were added. Therefore, 25 μL of virus suspension was added to all the wells containing test compound and to the wells assigned as virus control. In parallel, 25 μL of culture medium was added to the cell controls. Next, the plates were incubated for 3 days in a fully humidified incubator (37° C., 5% CO2). After 3 days, the supernatant was removed from the wells and the cells were washed twice with ice-cold PBS (˜100 μL). The cell pellets within the 96-well plates were stored at −80° C. for at least 1 day. Next, RNA was extracted using the Cells-to-CT™ lysis kit, according to the manufacture's guideline (Applied Biosystems). The cell lysates can be stored at −80° C. or immediately used in the reverse transcription step.
(§3) In preparation of the reverse transcription step, mix A (table 3A) was prepared and 7.57 μL/well was dispensed in a 96-well plate. After addition of 5 μL of the cell lysates, a five minute denaturation step at 75° C. was performed (table 3B). Afterwards, 7.43 μL of mix B was added (table 3C) and the reverse transcription step was initiated (table 3D) to generate cDNA.
(§4) Finally, a RT-qPCR mix was prepared, mix C (table 4A), dispensed in 96-well LightCycler qPCR plates to which 3 μL of cDNA was added and the qPCR was performed according to the conditions in table 4B on a LightCycler 480. Using the LightCycler software and an in-house LIMS system, dose response curves for each compound were calculated and the half maximal effective concentration (EC50) and the half maximal cytotoxic concentration (CC50) were determined.

DENV-4 strains H241 = assay: Tetravalent RT-qPCR assay Protocol A, serotype 4; format: cell-based; conditions: Dengue virus, DENV4, 72 h; RT-qPCR serotype 4 H241, Vero cells, day 3
Protocol: as §1, §2, §3, §4

DENV-2 16681 strain = assay: DENV-2 antiviral assay (eGFP-labeled virus in Vero cells); format: cell-based, Dengue virus; conditions: DENV-2 16681 eGFP, MOI 0.5, 3 days, listed as 10B*
Procedure, shortened: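 Vero cells were pre-plated with compound overnight, then infected with eGFP-labeled DENV-2 16681 at MOI 0.5 and incubated 3 days at 37 °C. eGFP fluorescence read by automated microscopy; 9-point 4-fold dilutions (25 μM–0.00038 μM final) in quadruplicate, EC50 by linear interpolation versus virus and cell controls.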

in vitro = format: cell-based; conditions: African green monkey, CC50
Protocol: as §1, §2, §4

Question: Which results are given for `COc1cc(NC(C(=O)c2c[nH]c3cc(OC)c(C)cc23)c2ccc(F)cc2OC)cc(S(C)(=O)=O)c1` (single isomer, unassigned) [Enantiomer 10B, 2-(4-fluoro-2-methoxyphenyl)-2-((3-methoxy-5-(methylsulfonyl)phenyl)amino)-1-(6-methoxy-5-methyl-1H-indol-3-yl)ethanone]?
Answer: pEC50 (DENV-1 strain TC974#666): 8.35; pEC50 (DENV-4 strains H241): 6.96; pEC50 (DENV-2 16681 strain): 9.17; CC50 at 3 days (in vitro): 5140 nM
